ChEMBL document CHEMBL1157599, “Synthesis, in vitro and in vivo biological evaluation, docking studies, and structure--activity relationship (SAR) discussion of dipeptidyl boronic acid proteasome inhibitors composed of beta-amino acids” (J Med Chem, 2010)

Assays:
[1] = system: U-266; assay: Cytotoxicity against human U266 cells after 72 hrs by MTT assay; format: functional, cell-based; conditions: U-266, 72 h
[2] = Tmax in Sprague-Dawley rat at 1 mg/kg, iv; format: ADME, organism-based; design: dose 1 mg/kg, route intravenous; conditions: in vivo
[3] = AUC (0 to t) in Sprague-Dawley rat at 1 mg/kg, iv; format: ADME, organism-based; design: dose 1 mg/kg, route intravenous; conditions: plasma
[4] = Oral bioavailability in Sprague-Dawley rat; format: ADME, organism-based; conditions: in vivo
[5] = Systemic clearance in Sprague-Dawley rat at 1 mg/kg, ig; format: ADME, organism-based; design: dose 1 mg/kg, route intragastric; conditions: in vivo, po
[6] = system: SK-OV-3; assay: Cytotoxicity against human SKOV3 cells after 72 hrs by MTT assay; format: functional, cell-based; conditions: SK-OV-3, 72 h
[7] = Cmax in Sprague-Dawley rat at 1 mg/kg, iv; format: ADME, organism-based; design: dose 1 mg/kg, route intravenous; conditions: in vivo
[8] = AUC (0 to t) in Sprague-Dawley rat at 1 mg/kg, ig; format: ADME, organism-based; design: dose 1 mg/kg, route intragastric; conditions: plasma, po
[9] = system: HL-60; assay: Cytotoxicity against human HL60 cells after 72 hrs by MTT assay; format: functional, cell-based; conditions: HL-60, 72 h
[10] = system: HepG2; assay: cells; conditions: Homo sapiens, HepG2, 72 h
Description: Cytotoxicity against human HepG2 cells after 72 hrs by MTT assay

[11] = Terminal half life in Sprague-Dawley rat at 1 mg/kg, ig; format: ADME, organism-based; design: dose 1 mg/kg, route intragastric; conditions: in vivo, po, read-out: beta t1/2 (converted)
[12] = Cytotoxicity against human BCG823 cells after 72 hrs by MTT assay; format: functional, cell-based; conditions: BCG823, 72 h
[13] = Toxicity against zebrafish embryo assessed as embryo death at 10 umol after 24 hrs; design: species or system Danio rerio; conditions: in vivo
[14] = Tmax in Sprague-Dawley rat at 1 mg/kg, ig; format: ADME, organism-based; design: dose 1 mg/kg, route intragastric; conditions: in vivo, po
[15] = system: PC-3; assay: Cytotoxicity against human PC3 cells after 72 hrs by MTT assay; format: functional, cell-based; conditions: PC-3, 72 h
[16] = system: A549; assay: Cytotoxicity against human A549 cells after 72 hrs by MTT assay; format: functional, cell-based; conditions: A549, 72 h
[17] = system: Rattus norvegicus; assay: Volume of distribution in Sprague-Dawley rat at 1 mg/kg, ig; format: ADME, organism-based; design: dose 1 mg/kg, route intragastric; conditions: in vivo, po
[18] = system: Rattus norvegicus; assay: Toxicity in Sprague-Dawley rat assessed as mortality at 1 mg/kg, ig after 10 hrs; format: organism-based; design: dose 1 mg/kg, route intragastric; conditions: in vivo, po
[19] = Mean residence time in Sprague-Dawley rat at 1 mg/kg, ig; format: ADME, organism-based; design: dose 1 mg/kg, route intragastric; conditions: in vivo, po
[20] = Terminal half life in Sprague-Dawley rat at 1 mg/kg, iv; format: ADME, organism-based; design: dose 1 mg/kg, route intravenous; conditions: in vivo, read-out: beta t1/2 (converted)
[21] = Inhibition of chymotrypsin-like activity of human 20S proteosome assessed as hydrolysis of fluorogenic Suc-Leu-Leu-Val-Tyr-AMC substrate
[22] = Volume of distribution in Sprague-Dawley rat at 1 mg/kg, iv; format: ADME, organism-based; design: dose 1 mg/kg, route intravenous; conditions: in vivo, read-out: Vz
[23] = Toxicity against zebrafish embryo assessed as cell death in embryo at 1 umol after 24 hrs; design: species or system Danio rerio
[24] = system: BXPC-3; assay: Cytotoxicity against human BxPC3 cells after 72 hrs by MTT assay; format: functional, cell-based; conditions: BXPC-3, 72 h
[25] = system: NCI-H460; assay: Cytotoxicity against human H460 cells after 72 hrs by MTT assay; format: functional, cell-based; conditions: NCI-H460, 72 h
[26] = system: SW480; assay: Cytotoxicity against human SW480 cells after 72 hrs by MTT assay; format: functional, cell-based; conditions: SW480, 72 h
[27] = system: Rattus norvegicus; assay: Toxicity in Sprague-Dawley rat assessed as mortality at 1 mg/kg, iv after 10 hrs; format: organism-based; design: dose 1 mg/kg, route intravenous; conditions: in vivo
[28] = Toxicity against zebrafish embryo assessed as cell death in tail at 1 umol after 24 hrs; design: species or system Danio rerio
[29] = Systemic clearance in Sprague-Dawley rat at 1 mg/kg, iv; format: ADME, organism-based; design: dose 1 mg/kg, route intravenous; conditions: in vivo
[30] = Cmax in Sprague-Dawley rat at 1 mg/kg, ig; format: ADME, organism-based; design: dose 1 mg/kg, route intragastric; conditions: in vivo, po
[31] = Mean residence time in Sprague-Dawley rat at 1 mg/kg, iv; format: ADME, organism-based; design: dose 1 mg/kg, route intravenous; conditions: in vivo
[32] = system: Rattus norvegicus; assay: Toxicity in Sprague-Dawley rat assessed as toxic reactions at 1 mg/kg, ig; format: organism-based; design: dose 1 mg/kg, route intragastric; conditions: in vivo, po
[33] = system: Rattus norvegicus; assay: Toxicity in Sprague-Dawley rat assessed as toxic reactions at 1 mg/kg, iv; format: organism-based; design: dose 1 mg/kg, route intravenous; conditions: in vivo
[34] = system: Rattus norvegicus; assay: Toxicity in Sprague-Dawley rat assessed as side effects at 2 mg/kg, iv; format: organism-based; design: dose 2 mg/kg, route intravenous; conditions: in vivo
[35] = Toxicity against zebrafish embryo assessed as morphological changes at 10 umol after 24 hrs; design: species or system Danio rerio; conditions: in vivo
[36] = Toxicity against zebrafish embryo assessed as morphological changes at 1 umol after 24 hrs; design: species or system Danio rerio; conditions: in vivo

CC(C)C[C@H](NC(=O)[C@H](Cc1ccccc1)NC(=O)c1cnccn1)B(O)O [BORTEZOMIB]
IC50 [1]: 8.8 nM | Tmax [2]: 1.8 min | AUC(0-t) [3]: 654 ng·h/mL | bioavailability [4]: 46% | CL/F [5]: 44.7 mL/min/kg | IC50 [6]: 151 nM | Cmax [7]: 1080 ng/mL | AUC(0-t) [8]: 303 ng·h/mL | IC50 [9]: 7.1 nM | IC50 [10]: 7.5 nM | half-life [11]: 7.47 h | IC50 [12]: 3290 nM | Activity [13]: Toxic | Tmax [14]: 0.23 h | IC50 [15]: 7 nM | IC50 [16]: 6.7 nM | Vz [17]: 29.791 L/kg | Activity [18]: Toxic | MRT [19]: 7.69 h | half-life [20]: 2 h | IC50 [21]: 2.48 nM | Vd [22]: 3.74 L/kg | Activity [23]: 52.4% | IC50 [24]: 16.2 nM | IC50 [25]: 780 nM | IC50 [26]: 6.1 nM | Activity [27]: Toxic | Activity [28]: 28.5% | clearance [29]: 23.9 mL/min/kg | Cmax [30]: 161 ng/mL | MRT [31]: 1.4 h

CC(C)C[C@H](NC(=O)CC(NC(=O)c1ccccc1)c1ccc(Cl)cc1)B(O)O (stereo not given in full)
IC50 [21]: 30 nM

COc1ccc(C(CC(=O)N[C@@H](CC(C)C)B(O)O)NC(=O)c2cccc3c2CCCC3)cc1 (stereo not given in full)
IC50 [21]: 161 nM

COc1ccc([C@@H](CC(=O)N[C@@H](CC(C)C)B(O)O)NC(=O)c2ccccc2)cc1
IC50 [1]: 350 nM | Tmax [2]: 1.8 min | AUC(0-t) [3]: 933 ng·h/mL | IC50 [6]: 3490 nM | Activity [32]: Non-toxic | Cmax [7]: 2930 ng/mL | IC50 [9]: 140 nM | IC50 [10]: 1880 nM | IC50 [12]: 74400 nM | Activity [33]: Non-toxic | IC50 [15]: 230 nM | IC50 [16]: 830 nM | half-life [20]: 5.3 h | IC50 [21]: 9.6 nM | Vd [22]: 8.45 L/kg | IC50 [24]: 380 nM | IC50 [25]: 14600 nM | IC50 [26]: 410 nM | Activity [34]: Non-toxic | clearance [29]: 18.8 mL/min/kg | MRT [31]: 2.8 h

Cc1ccc(C[C@H](NC(=O)CC(NC(=O)c2cnccn2)c2ccccc2)B(O)O)cc1 (stereo not given in full)
IC50 [21]: 497 nM

Cc1ccc(C(CC(=O)N[C@@H](CC(C)C)B(O)O)NC(=O)c2cnccn2)cc1 (stereo not given in full)
IC50 [21]: 69.8 nM

COc1ccc(C(CC(=O)N[C@@H](CC(C)C)B(O)O)NC(=O)c2ccccc2)cc1 (stereo not given in full)
IC50 [1]: 2650 nM | IC50 [6]: 8430 nM | IC50 [9]: 1020 nM | IC50 [10]: 5590 nM | IC50 [12]: 30900 nM | IC50 [15]: 830 nM | IC50 [16]: 3450 nM | IC50 [21]: 12.5 nM | IC50 [24]: 1500 nM | IC50 [25]: 36000 nM | IC50 [26]: 1080 nM

CC(C)C[C@H](NC(=O)CC(NC(=O)c1cccnc1)c1ccc(Cl)cc1)B(O)O (stereo not given in full)
IC50 [21]: 180 nM

Cc1ccc(C(CC(=O)N[C@@H](CC(C)C)B(O)O)NC(=O)c2ccccc2)cc1 (stereo not given in full)
IC50 [21]: 14 nM

CC(C)C[C@H](NC(=O)CC(NC(=O)c1ccccc1)c1ccccc1)B(O)O (stereo not given in full)
IC50 [21]: 40 nM

Cc1ccc(C(CC(=O)N[C@@H](CC(C)C)B(O)O)NC(=O)c2cccnc2)cc1 (stereo not given in full)
IC50 [21]: 165 nM

CC(C)C[C@H](NC(=O)CC(NC(=O)c1cnccn1)c1ccc(Cl)cc1)B(O)O (stereo not given in full)
IC50 [21]: 121 nM

COc1ccc(C(CC(=O)N[C@@H](CC(C)C)B(O)O)NC(=O)c2cccnc2)cc1 (stereo not given in full)
IC50 [21]: 35 nM

CC(C)C[C@H](NC(=O)CC(NC(=O)c1cnccn1)c1ccccc1)B(O)O (stereo not given in full)
IC50 [21]: 136 nM

CC(C)C[C@H](NC(=O)CC(NC(=O)c1cccnc1)c1ccccc1)B(O)O (stereo not given in full)
IC50 [21]: 382 nM

COc1ccc(C(CC(=O)N[C@@H](CC(C)C)B(O)O)NC(=O)c2cnccn2)cc1 (stereo not given in full)
IC50 [21]: 134 nM

O=C(CC(NC(=O)c1cnccn1)c1ccccc1)N[C@@H](Cc1ccccc1)B(O)O (stereo not given in full)
IC50 [21]: 664 nM

COc1ccc([C@H](CC(=O)N[C@@H](CC(C)C)B(O)O)NC(=O)c2ccccc2)cc1
IC50 [1]: 1280 nM | IC50 [6]: 14500 nM | Activity [35]: Non-toxic | Activity [36]: Non-toxic | IC50 [9]: 700 nM | IC50 [10]: 5130 nM | IC50 [12]: 76900 nM | IC50 [15]: 1110 nM | IC50 [16]: 3680 nM | IC50 [21]: 350 nM | IC50 [24]: 2820 nM | IC50 [25]: 25200 nM | IC50 [26]: 1720 nM
